Laboratory results as given in ChEMBL document CHEMBL4825673, “Total and Semisyntheses of Polymyxin Analogues with 2-Thr or 10-Thr Modifications to Decipher the Structure-Activity Relationship and Improve the Antibacterial Activity” (J Med Chem, 2021).
Values after ≈ are worked out from the molar mass of the structure shown.

Columns and labels:
Type in all cases: functional
Details in all cases: read-out: MIC100
Moraxella catarrhalis = test: Antibacterial activity against Moraxella catarrhalis assessed as inhibition of bacterial growth incubated for 24 hrs by broth microdilution method
Pseudomonas aeruginosa [1] = test: Antibacterial activity against Pseudomonas aeruginosa assessed as inhibition of bacterial growth incubated for 24 hrs by broth microdilution method
Acinetobacter baumannii = test: Antibacterial activity against Acinetobacter baumannii assessed as inhibition of bacterial growth incubated for 24 hrs by broth microdilution method
Escherichia coli = test: Antibacterial activity against Escherichia coli assessed as inhibition of bacterial growth incubated for 24 hrs by broth microdilution method
Pseudomonas aeruginosa [2] = test: Antibacterial activity against Pseudomonas aeruginosa PAO1 assessed as inhibition of bacterial growth incubated for 24 hrs by broth microdilution method
Klebsiella pneumoniae = test: Antibacterial activity against Klebsiella pneumoniae assessed as inhibition of bacterial growth incubated for 24 hrs by broth microdilution method

Row | Structure (SMILES) | MIC (Moraxella catarrhalis) | MIC (Pseudomonas aeruginosa [1]) | MIC (Acinetobacter baumannii) | MIC (Escherichia coli) | MIC (Pseudomonas aeruginosa [2]) | MIC (Klebsiella pneumoniae)
1 | CC(C)CCCCC(=O)N[C@@H](CCN)C(=O)N[C@H](C(=O)N[C@@H](CCN)C(=O)N[C@H]1CCNC(=O)[C@H]([C@@H](C)O)NC(=O)[C@H](CCN)NC(=O)[C@H](CCN)NC(=O)[C@H](CC(C)C)NC(=O)[C@@H](Cc2ccccc2)NC(=O)[C@H](CCN)NC1=O)C(C)C | 8 µg/mL (≈ 6.74 µM) | 0.5 µg/mL (≈ 0.421 µM) | 16 µg/mL (≈ 13.5 µM) | 8 µg/mL (≈ 6.74 µM) | 4 µg/mL (≈ 3.37 µM) | > 16 µg/mL
2 | CCCCCCCC(=O)N[C@@H](CCN)C(=O)N[C@H](C(=O)N[C@@H](CCN)C(=O)N[C@H]1CCNC(=O)[C@H](CCN)NC(=O)[C@H](CCN)NC(=O)[C@H](CCN)NC(=O)[C@H](CC(C)C)NC(=O)[C@@H](Cc2ccccc2)NC(=O)[C@H](CCN)NC1=O)[C@@H](C)O | 8 µg/mL (≈ 6.73 µM) | 8 µg/mL (≈ 6.73 µM) | 0.25 µg/mL (≈ 0.21 µM) | 8 µg/mL (≈ 6.73 µM) | 64 µg/mL (≈ 53.8 µM) | > 32 µg/mL
3 | CC(C)CCCCC(=O)N[C@@H](CCN)C(=O)N[C@H](C(=O)N[C@@H](CCN)C(=O)N[C@H]1CCNC(=O)[C@H]([C@@H](C)OC(=O)CN)NC(=O)[C@H](CCN)NC(=O)[C@H](CCN)NC(=O)[C@H](CC(C)C)NC(=O)[C@@H](Cc2ccccc2)NC(=O)[C@H](CCN)NC1=O)[C@@H](C)OC(=O)CN | > 64 µg/mL | 0.25 µg/mL (≈ 0.192 µM) | 0.125 µg/mL (≈ 0.0959 µM) | 0.25 µg/mL (≈ 0.192 µM) | 1 µg/mL (≈ 0.767 µM) | 1 µg/mL (≈ 0.767 µM)
4 | CC(C)C[C@@H]1NC(=O)[C@@H](Cc2ccccc2)NC(=O)[C@H](CCN)NC(=O)[C@@H](NC(=O)[C@H](CCN)NC(=O)[C@@H](NC(=O)[C@H](CCN)NC(=O)CCCCCCCN)[C@@H](C)O)CCNC(=O)[C@H]([C@@H](C)O)NC(=O)[C@H](CCN)NC(=O)[C@H](CCN)NC1=O | > 32 µg/mL | 0.125 µg/mL (≈ 0.104 µM) | 2 µg/mL (≈ 1.66 µM) | 8 µg/mL (≈ 6.64 µM) | 1 µg/mL (≈ 0.83 µM) | > 32 µg/mL
5 | CC(C)CCCCC(=O)N[C@@H](CCN)C(=O)N[C@H](C(=O)N[C@@H](CCN)C(=O)N[C@H]1CCNC(=O)[C@H]([C@@H](C)O)NC(=O)[C@H](CCN)NC(=O)[C@H](CCN)NC(=O)[C@H](CC(C)C)NC(=O)[C@@H](Cc2ccccc2)NC(=O)[C@H](CCN)NC1=O)[C@@H](C)OC(=O)[C@@H](N)CS | 32 µg/mL (≈ 24.8 µM) | 0.25 µg/mL (≈ 0.193 µM) | 0.125 µg/mL (≈ 0.0967 µM) | 0.25 µg/mL (≈ 0.193 µM) | 2 µg/mL (≈ 1.55 µM) | 1 µg/mL (≈ 0.774 µM)
6 | CC(C)CCCCC(=O)N[C@@H](CCN)C(=O)N[C@H](C(=O)N[C@@H](CCN)C(=O)N[C@H]1CCNC(=O)[C@H]([C@@H](C)O)NC(=O)[C@H](CCN)NC(=O)[C@H](CCN)NC(=O)[C@H](CC(C)C)NC(=O)[C@@H](Cc2ccccc2)NC(=O)[C@H](CCN)NC1=O)[C@H](C)OC(=O)[C@@H](N)CCC(N)=O | > 32 µg/mL | 0.25 µg/mL (≈ 0.19 µM) | 0.06 µg/mL (≈ 0.0455 µM) | 0.5 µg/mL (≈ 0.379 µM) | 2 µg/mL (≈ 1.52 µM) | 2 µg/mL (≈ 1.52 µM)
7 | CC(=O)O[C@H](C)[C@H](NC(=O)[C@H](CCN)NC(=O)CCCCC(C)C)C(=O)N[C@@H](CCN)C(=O)N[C@H]1CCNC(=O)[C@H]([C@@H](C)O)NC(=O)[C@H](CCN)NC(=O)[C@H](CCN)NC(=O)[C@H](CC(C)C)NC(=O)[C@@H](Cc2ccccc2)NC(=O)[C@H](CCN)NC1=O | 16 µg/mL (≈ 13 µM) | 0.5 µg/mL (≈ 0.406 µM) | 8 µg/mL (≈ 6.5 µM) | 4 µg/mL (≈ 3.25 µM) | 16 µg/mL (≈ 13 µM) | > 32 µg/mL
8 | CCCCCCCC(=O)N[C@@H](CCN)C(=O)NC(Cc1ccc(O)cc1)C(=O)N[C@@H](CCN)C(=O)N[C@H]1CCNC(=O)[C@H]([C@@H](C)O)NC(=O)[C@H](CCN)NC(=O)[C@H](CCN)NC(=O)[C@H](CC(C)C)NC(=O)[C@@H](Cc2ccccc2)NC(=O)[C@H](CCN)NC1=O (single isomer, unassigned) | 8 µg/mL (≈ 6.39 µM) | 2 µg/mL (≈ 1.6 µM) | > 64 µg/mL | 16 µg/mL (≈ 12.8 µM) | 32 µg/mL (≈ 25.6 µM) | > 64 µg/mL
9 | CSCC[C@H](N)C(=O)O[C@H](C)[C@H](NC(=O)[C@H](CCN)NC(=O)CCCCC(C)C)C(=O)N[C@@H](CCN)C(=O)N[C@H]1CCNC(=O)[C@H]([C@@H](C)O)NC(=O)[C@H](CCN)NC(=O)[C@H](CCN)NC(=O)[C@H](CC(C)C)NC(=O)[C@@H](Cc2ccccc2)NC(=O)[C@H](CCN)NC1=O | > 16 µg/mL | 0.125 µg/mL (≈ 0.0946 µM) | 0.125 µg/mL (≈ 0.0946 µM) | 0.25 µg/mL (≈ 0.189 µM) | 2 µg/mL (≈ 1.51 µM) | 2 µg/mL (≈ 1.51 µM)
10 | CCCCCCCC(=O)N[C@@H](CCN)C(=O)N[C@H](C(=O)N[C@@H](CCN)C(=O)N[C@H]1CCNC(=O)[C@H](C(C)C)NC(=O)[C@H](CCN)NC(=O)[C@H](CCN)NC(=O)[C@H](CC(C)C)NC(=O)[C@@H](Cc2ccccc2)NC(=O)[C@H](CCN)NC1=O)[C@@H](C)O | 4 µg/mL (≈ 3.37 µM) | 0.5 µg/mL (≈ 0.421 µM) | 1 µg/mL (≈ 0.842 µM) | 8 µg/mL (≈ 6.74 µM) | 4 µg/mL (≈ 3.37 µM) | 4 µg/mL (≈ 3.37 µM)
11 | CC(C)CCCCC(=O)N[C@@H](CCN)C(=O)N[C@H](C(=O)N[C@@H](CCN)C(=O)N[C@H]1CCNC(=O)[C@H]([C@@H](C)O)NC(=O)[C@H](CCN)NC(=O)[C@H](CCN)NC(=O)[C@H](CC(C)C)NC(=O)[C@@H](Cc2ccccc2)NC(=O)[C@H](CCN)NC1=O)[C@@H](C)OC(=O)[C@@H](N)C(C)C | > 32 µg/mL | 0.5 µg/mL (≈ 0.388 µM) | 1 µg/mL (≈ 0.776 µM) | 0.5 µg/mL (≈ 0.388 µM) | 2 µg/mL (≈ 1.55 µM) | 4 µg/mL (≈ 3.1 µM)
12 | CC(C)CCCCC(=O)N[C@@H](CCN)C(=O)N[C@H](C(=O)N[C@@H](CCN)C(=O)N[C@H]1CCNC(=O)[C@H]([C@@H](C)O)NC(=O)[C@H](CCN)NC(=O)[C@H](CCN)NC(=O)[C@H](CC(C)C)NC(=O)[C@@H](Cc2ccccc2)NC(=O)[C@H](CCN)NC1=O)[C@@H](C)OC(=O)[C@@H](N)CCCNC(=N)N | > 16 µg/mL | 0.5 µg/mL (≈ 0.372 µM) | 0.25 µg/mL (≈ 0.186 µM) | 0.5 µg/mL (≈ 0.372 µM) | 2 µg/mL (≈ 1.49 µM) | 1 µg/mL (≈ 0.743 µM)
13 | CCCCCCCC(=O)N[C@@H](CCN)C(=O)N[C@H](C(=O)N[C@@H](CCN)C(=O)N[C@H]1CCNC(=O)[C@H](CS)NC(=O)[C@H](CCN)NC(=O)[C@H](CCN)NC(=O)[C@H](CC(C)C)NC(=O)[C@@H](Cc2ccccc2)NC(=O)[C@H](CCN)NC1=O)[C@@H](C)O | 4 µg/mL (≈ 3.36 µM) | 0.06 µg/mL (≈ 0.0504 µM) | 0.25 µg/mL (≈ 0.21 µM) | 2 µg/mL (≈ 1.68 µM) | 2 µg/mL (≈ 1.68 µM) | 2 µg/mL (≈ 1.68 µM)
14 | CC(C)CCCCC(=O)N[C@@H](CCN)C(=O)N[C@H](C(=O)N[C@@H](CCN)C(=O)N[C@H]1CCNC(=O)[C@H]([C@@H](C)O)NC(=O)[C@H](CCN)NC(=O)[C@H](CCN)NC(=O)[C@H](CC(C)C)NC(=O)[C@@H](Cc2ccccc2)NC(=O)[C@H](CCN)NC1=O)[C@@H](C)OC(=O)[C@@H](N)CO | 32 µg/mL (≈ 25.1 µM) | 0.25 µg/mL (≈ 0.196 µM) | 0.125 µg/mL (≈ 0.0979 µM) | 0.25 µg/mL (≈ 0.196 µM) | 1 µg/mL (≈ 0.783 µM) | 1 µg/mL (≈ 0.783 µM)
15 | CC(N[C@@H](CCN)C(=O)N[C@H](C(=O)N[C@@H](CCN)C(=O)N[C@H]1CCNC(=O)[C@H]([C@@H](C)O)NC(=O)[C@H](CCN)NC(=O)[C@H](CCN)NC(=O)[C@H](CC(C)C)NC(=O)[C@@H](Cc2ccccc2)NC(=O)[C@H](CCN)NC1=O)[C@@H](C)O)=C1C(=O)CC(C)(C)CC1=O | – | – | – | – | 32 µg/mL (≈ 26.1 µM) | –
16 | CC[C@H](C)CCCCC(=O)N[C@@H](CCN)C(=O)N[C@H](C(=O)N[C@@H](CCN)C(=O)N[C@H]1CCNC(=O)[C@H]([C@@H](C)O)NC(=O)[C@H](CCN)NC(=O)[C@H](CCN)NC(=O)[C@H](CC(C)C)NC(=O)[C@@H](Cc2ccccc2)NC(=O)[C@H](CCN)NC1=O)[C@@H](C)OC(=O)[C@@H](N)CO | – | – | – | – | 1 µg/mL (≈ 0.775 µM) | –
